{"source": "patent US10300143B2", "about": "“Compositions for treating cancer and methods for making the same” (THE BRIGHAM AND WOMEN'S HOSPITAL, INC., priority 2012, dated 2019)", "key": {"[1]": {"system": "Lewis lung carcinoma (LLC) cells", "test": "Cell viability assay (MTS), platinates", "type": "cell-based", "conditions": "48 h", "experimental": "(§1) The LLC cells, breast cancer cell line (4T1), and hepatocellular carcinoma cells (CP20) were seeded into 96-well flat bottomed plates (4×10^3 cells per well). Drugs or SACNs were added at equivalent Pt concentrations and incubated for 48 h. Viability was quantified using the Cell-Titer 96 Aqueous One Solution™ reagent. Cellular apoptosis was quantified using Annexin-V-Alexa Fluor™ 488 conjugate and propidium iodide staining followed by FACS.\n(§2) The Lewis lung carcinoma (LLC) cells, breast cancer cell line (4T1), and hepatocellular carcinoma cells (CP20) were purchased from American Type Culture Collection. LLC cells and CP20 cells were cultured in DMEM and 4T1 cells were cultured in RPMI medium 1640-supplemented with 10% FBS, 50 unit/mL penicillin, and 50 unit/mL streptomycin. Trypsinized cultured LLC, 4T1, and CP20 cells were washed twice with PBS and seeded into 96-well flat-bottomed plates (4×10^3 cells per well). Free drugs and SACNs were added at appropriate concentrations (0.01, 0.1, 1, 10, 20, 50 μM Pt concentration). […] After 2 h incubation in 5% CO2 atmosphere at 37° C., the absorbance in each well was recorded at 490 nm using an Epoch (BioTek™) plate reader. Results were quantified by subtracting the blank value from each value then normalizing against the control values and results were analyzed by using Prism™ software (GraphPad). […]"}, "[2]": {"system": "4T1 breast cancer cell line", "test": "Cell viability assay (MTS), platinates", "type": "cell-based, murine", "conditions": "48 h", "experimental": "as §1, §2"}, "[3]": {"system": "4T1 breast tumors", "experimental": "The 4T1 breast cancer cells (3×10^5) were implanted subcutaneously in the flanks of 4-wk-old BALB/c mice. […] PBS (100 μL) by tail-vain injection was used as a control for drug treatment. Treatment was started on day 9 postimplantation, and administered every alternate day till day 13. The tumor volumes and body weights were monitored on a daily basis. The tumor volume was calculated by using the formula, L×B^2.\n(§3) The tissues were fixed in 10% formalin, paraffin-embedded, and sectioned at the Harvard Medical School Core Facility. Tumor and kidney paraffin sections were deparaffinized and stained with a standard TMR red fluorescent TUNEL kit following the manufacturer's protocol (In Situ Cell Death Detection Kit™, TMR-Red; Roche). The kidney sections were also immunolabeled for KIM1 expression. Images were obtained using a Nikon Eclipse TE2000™ fluorescence microscope equipped with red filter.\nThe 4T1 breast cancer cells (3×105) were implanted subcutaneously in the flanks of 4-wk-old BALB/c mice (weighing 20 g; Charles River Laboratories). The drug therapy was started on day 9. […] PBS (100 μL) administered by tail-vain injection was used as a control for drug treatment. The tumor volumes and body weights were monitored on a daily basis. The tumor volume was calculated by using the formula, L×B2, where the longest diameter was considered as L and the shortest diameter as measured using a vernier caliper as B. The animals were killed when the average tumor volume of the control exceeded 2,000 mm3 in the control group. The tumors were harvested immediately following sacrifice and stored in 10% formalin for further analysis. All animal procedures were approved by the Harvard Institutional Use and Care of Animals Committee.\nas §3, with “with” for “with a”, “Roche).” for “Roche). The kidney sections were also immunolabeled for KIM1 expression.”, “TE2000” for “TE2000™”"}, "[4]": {"system": "cisplatin-resistant hepatocellular carcinoma (7404-CP20) cell line", "test": "Cell viability assay (MTS), platinates", "type": "cell-based, human", "conditions": "48 h", "experimental": "as §1, §2"}, "[5]": {"system": "4T1 cells", "test": "FACS analysis of apoptosis (Annexin-V/PI)", "type": "cell-based, murine", "conditions": "1 μM Pt, 24 h", "experimental": "The LLC cells, breast cancer cell line (4T1), and hepatocellular carcinoma cells (CP20) were seeded into 96-well flat bottomed plates (4×10^3 cells per well). Drugs or SACNs were added at equivalent Pt concentrations and incubated for 48 h. Viability was quantified using the Cell-Titer 96 Aqueous One Solution™ reagent. Cellular apoptosis was quantified using Annexin-V-Alexa Fluor™ 488 conjugate and propidium iodide staining followed by FACS. […] After 24 h, the cells were washed with PBS and collected at 0° C. The cells were then treated with Annexin-V-Alexa Fluor 488™ conjugate (Molecular Probes, Invitrogen) and incubated in the dark, at room temperature, for 15 min. The cells were then washed with PBS and incubated with propidium iodide (PI) solution ([…]; Sigma) containing RNase (1 mg/mL; Sigma). The cell suspension were then transferred to FACS tubes and analyzed for Annexin-V/PI staining on a BD FACS Calibur™ instrument. Data were analyzed using a CellQuestPro™ software (BD Biosciences)."}, "[6]": {"test": "Maximum tolerated dose (20% body weight loss)", "type": "in vivo, BALB/c mice"}, "[7]": {"system": "K-Ras^LSL/+/Pten^fl/fl ovarian cancer", "test": "In vivo K-ras^LSL/+/Pten^fl/fl ovarian cancer model, platinates", "set-up": "species or system mice", "conditions": "Pt dose equivalent to 3 mg/kg of cisplatin"}, "[8]": {"conditions": "single dose, Pt equivalent to 8 mg/kg cisplatin"}}, "note": "Where two headings read alike, the source gives them in different places.", "data": [{"smiles": "N.N.O=C([O-])C1(C(=O)[O-])CCC1.[Pt+2]", "note": "[carboplatin]", "values": [{"measurement": "inhibitory activity (cell viability)", "setting": "[1]", "result": "In neither of these cell lines did carboplatin exert any inhibitory activity at this concentration range"}, {"measurement": "inhibitory activity (cell viability)", "setting": "[2]", "result": "In neither of these cell lines did carboplatin exert any inhibitory activity at this concentration range"}, {"measurement": "survival", "setting": "[3]; [8]", "result": "only minor increase in survival over vehicle-treated controls"}]}, {"smiles": "N.N.[Cl][Pt][Cl]", "note": "[cisplatin, cis-dichlorodiamineplatinum (II)]", "values": [{"measurement": "IC50", "setting": "[1]", "result": "2910 ± 15", "unit": "nM"}, {"measurement": "IC50", "setting": "[2]", "result": "4.72 ± 0.016", "unit": "µM"}, {"measurement": "IC50", "setting": "[4]", "result": "42.84 ± 0.04", "unit": "µM"}, {"measurement": "apoptosis and necrosis", "setting": "[5]", "result": "more efficacious than carboplatin"}, {"measurement": "maximum tolerated dose (MTD)", "setting": "[6]", "result": 9, "unit": "mg/kg"}, {"measurement": "tumor growth", "setting": "[3]; multiple dose, 1 and 3 mg/kg, days 9, 11, 13", "result": "dose-dependent inhibition of tumor growth"}, {"measurement": "survival", "setting": "[3]; multiple dose, higher dose", "result": "increase survival"}, {"measurement": "tumor inhibition", "setting": "[3]; multiple dose, highest doses (3 mg/kg Pt)", "result": "identical"}, {"measurement": "tumor inhibition", "setting": "[3]; multiple dose, lower doses (1 mg/kg Pt)", "result": "greater tumor inhibition as opposed to the higher dose of carboplatin"}, {"measurement": "survival", "setting": "[3]; [8]", "result": "only minor increase in survival over vehicle-treated controls"}, {"measurement": "kidney cell death (TUNEL)", "setting": "[7]", "result": "induced apoptosis of nephrons"}, {"measurement": "tumor apoptosis (TUNEL)", "setting": "[7]", "result": "apoptosis"}]}]}
